{"source": "patent US12539324B2", "about": "“Antimicrobial peptide stimulating sanitizing composition” (GOJO Industries, Inc., priority 2016, dated 2026)", "assay_type_in_all_cases": "cell-based, human", "key": {"HBD-1": {"test_system": "HBD-1", "assay": "HBD-1 ELISA, dose response in NHEK culture medium", "conditions": "vs control culture medium", "procedure": "(§1) To determine the optimal dose of active ingredient, test dose response studies were run using both Decorinyl® and Pamitoyl Pentapeptided-3. These test dose response studies were commissioned to determine the concentration of HBD-1 at various levels of the active ingredients. Neonatal Human Epidermal Keratinocytes (NHEK; Life Technology, Grand Island, NY, USA) were cultured with keratinocyte growth medium (KGM, Medium 154: M-154-500 Life Technology with supplements S-001, Life Technologies). NHEK were seeded into 96-well plates at a density of 10000 cells in 200 μl medium per well. After 48 hours, the cells were incubated with varying concentrations of each ingredient solution in a culture medium (KGM) overnight (16 hours) at 37° C., 5% CO2 and 95% humidity at four replicates for each concentration. Each of these active ingredients was tested at the following weight percents based on the weight of the total culture: 0.02 wt. %, 0.05 wt. %, 0.1 wt. %, 0.2 wt. %, 0.5 wt. %, 1.0 wt. %, 2.0 wt. %. Each of these compositions was compared to a control culture medium.\nHBD-1 was detected using HBD-1 ELISA (enzyme-linked immunosorbent assay) developing kits (commercially available from Peprotech). […] The results were measured using a colorimeter, absorbance was measured at 450 nanometers (nm) within 30 minutes. […] The concentration of each sample was calculated using ELISA standard curve."}, "HBD-2": {"test_system": "HBD-2", "assay": "HBD-2 ELISA, dose response in NHEK culture medium", "conditions": "2.0 wt. %, vs control culture medium", "procedure": "as §1, with “of HBD-2” for “of HBD-1”, “ingredients were” for “ingredients was”\nHBD-2 was detected using HBD-2 ELISA developing kits (commercially available from Peprotech). […] The results were measured using a colorimeter, absorbance was measured at 450 nanometers (nm) within 30 minutes. […] The concentration of each sample was calculated using ELISA standard curve."}, "HBD-3": {"test_system": "HBD-3", "assay": "HBD-3 ELISA, dose response in NHEK culture medium", "conditions": "vs control culture medium", "procedure": "as §1, with “HBD-3” for “HBD-1”, “5-001,” for “S-001,”\nHBD-3 was detected using HBD-3 ELISA developing kits (commercially available from Peprotech). […] The results were measured using a colorimeter, absorbance was measured at 450 nanometers (nm) within 30 minutes. […] The concentration of each sample was calculated using ELISA standard curve."}}, "data": [{"substance": "palmitoyl pentapeptide-3 [Pamitoyl Pentapeptided-3]", "values": [{"measurement": "increase in HBD-1 concentration", "setting": "HBD-1; 1.0 wt. %", "result": 311, "unit": "%"}, {"measurement": "increase in HBD-1 concentration", "setting": "HBD-1; 2.0 wt. %", "result": 1561, "unit": "%"}, {"measurement": "increase in HBD-2 concentration", "setting": "HBD-2", "result": 2800, "unit": "%"}, {"measurement": "increase in HBD-3 concentration", "setting": "HBD-3; 1.0 wt. %", "result": 1005, "unit": "%"}, {"measurement": "increase in HBD-3 concentration", "setting": "HBD-3; 2.0 wt. %", "result": 1890, "unit": "%"}]}]}
